According to patent US10301280B2 (Plexxikon Inc., priority 2012, dated 2019):

Molecular target: c-kit kinase (Homo sapiens (Human), UniProt P10721)
Test: c-Kit biochemical assay (AlphaScreen)
Conditions: c-kit biochemical inhibitory activity
Method in brief: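 AlphaScreen of biotin-(E4Y)3 (100 nM) phosphorylation by c-kit (0.1 ng) in HEPES pH 7.2, Mg/Mn, 10 μM ATP, 5% DMSO, 1 h at room temperature; variant uses 100 μM ATP, 30 nM biotin-(E4Y)10, 1 ng enzyme. PY20 acceptor/streptavidin donor signal versus 8-point concentration gives IC50.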

Chain of c-kit kinase (P10721 26-976): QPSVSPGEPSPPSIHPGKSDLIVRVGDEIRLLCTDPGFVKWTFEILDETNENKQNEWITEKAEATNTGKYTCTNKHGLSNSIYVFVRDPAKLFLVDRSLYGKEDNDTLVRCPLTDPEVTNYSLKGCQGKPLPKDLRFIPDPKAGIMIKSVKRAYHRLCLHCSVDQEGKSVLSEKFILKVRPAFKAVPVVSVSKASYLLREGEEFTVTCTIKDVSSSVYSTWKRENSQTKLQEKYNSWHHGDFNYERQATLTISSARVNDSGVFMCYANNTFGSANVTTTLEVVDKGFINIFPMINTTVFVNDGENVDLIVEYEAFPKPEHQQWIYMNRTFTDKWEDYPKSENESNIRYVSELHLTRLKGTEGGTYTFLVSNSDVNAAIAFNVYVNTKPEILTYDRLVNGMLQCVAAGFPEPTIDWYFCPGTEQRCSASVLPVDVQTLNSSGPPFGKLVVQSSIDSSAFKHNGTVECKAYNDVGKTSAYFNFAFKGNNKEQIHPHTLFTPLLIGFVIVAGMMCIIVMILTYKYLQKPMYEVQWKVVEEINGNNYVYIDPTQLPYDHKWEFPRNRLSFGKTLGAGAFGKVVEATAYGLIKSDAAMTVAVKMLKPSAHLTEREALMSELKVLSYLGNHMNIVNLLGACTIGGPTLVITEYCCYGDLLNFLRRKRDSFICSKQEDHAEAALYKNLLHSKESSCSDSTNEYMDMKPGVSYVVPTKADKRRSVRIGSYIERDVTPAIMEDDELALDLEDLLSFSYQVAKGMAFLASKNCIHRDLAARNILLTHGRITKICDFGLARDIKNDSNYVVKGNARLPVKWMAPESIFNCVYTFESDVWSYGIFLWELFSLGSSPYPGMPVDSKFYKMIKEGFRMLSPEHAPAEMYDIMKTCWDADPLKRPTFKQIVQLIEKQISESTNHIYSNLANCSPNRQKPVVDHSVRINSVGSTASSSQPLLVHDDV

| Structure (SMILES) | IC50 [µM] |
| --- | --- |
| Cc1n[nH]c(C(=O)Nc2cnc3c(c2)cc(C2=CCN(C(=O)N4CCOCC4)CC2)n3S(=O)(=O)c2ccccc2)c1C [P-2033, N-[1-(benzenesulfonyl)-2-[1-(morpholine-4-carbonyl)-3,6-dihydro-2H-pyridin-4-yl]pyrrolo[2,3-b]pyridin-5-yl]-3,4-dimethyl-1H-pyrazole-5-carboxamide] | 10 to 200 |
| Cc1n[nH]c(C(=O)Nc2cnc3[nH]c(-c4ccccc4OC(F)(F)F)cc3c2)c1C [P-2182, 3,4-dimethyl-N-[2-[2-(trifluoromethoxy)phenyl]-1H-pyrrolo[2,3-b]pyridin-5-yl]-1H-pyrazole-5-carboxamide] | 1 to 10 |
| Cc1n[nH]c(C(=O)Nc2cnc3[nH]ccc3c2)c1C [P-2032, 3,4-dimethyl-N-(1H-pyrrolo[2,3-b]pyridin-5-yl)-1H-pyrazole-5-carboxamide] | 10 to 200 |
| Cc1n[nH]c(C(=O)Nc2cnc3[nH]c(C4=CCN(C(=O)N5CCOCC5)CC4)cc3c2)c1C [P-2034, 3,4-dimethyl-N-[2-[1-(morpholine-4-carbonyl)-3,6-dihydro-2H-pyridin-4-yl]-1H-pyrrolo[2,3-b]pyridin-5-yl]-1H-pyrazole-5-carboxamide] | 0.0001 to 1 |
| Cc1cc(C(=O)Nc2cnc3[nH]c(C4=CCN(C(=O)C5CC5)CC4)cc3c2)n[nH]1 [P-2042, N-[2-[1-(cyclopropanecarbonyl)-3,6-dihydro-2H-pyridin-4-yl]-1H-pyrrolo[2,3-b]pyridin-5-yl]-5-methyl-1H-pyrazole-3-carboxamide] | 0.0001 to 1 |
| Cc1nn(C2CNC2)cc1-c1cc2cc(NC(=O)c3[nH]nc(C)c3C)cnc2[nH]1 [P-2286, N-[2-[1-(azetidin-3-yl)-3-methyl-pyrazol-4-yl]-1H-pyrrolo[2,3-b]pyridin-5-yl]-3,4-dimethyl-1H-pyrazole-5-carboxamide] | 0.0001 to 1 |
| Cc1n[nH]c(C(=O)Nc2cnc3[nH]nc(-c4cccc(N5CCNCC5)c4)c3c2)c1C [P-2166, 3,4-dimethyl-N-[3-(3-piperazin-1-ylphenyl)-1H-pyrazolo[3,4-b]pyridin-5-yl]-1H-pyrazole-5-carboxamide] | 0.0001 to 1 |
| Cc1n[nH]c(C(=O)Nc2cnc3[nH]c(-c4ccc(CC(=O)O)cc4)cc3c2)c1C [P-2295, 2-[4-[5-[(3,4-dimethyl-1H-pyrazole-5-carbonyl)amino]-1H-pyrrolo[2,3-b]pyridin-2-yl]phenyl]acetic acid] | 0.0001 to 1 |
| Cc1n[nH]c(C(=O)Nc2cnc3[nH]nc(C)c3c2)c1C [P-2040, 3,4-dimethyl-N-(3-methyl-1H-pyrazolo[3,4-b]pyridin-5-yl)-1H-pyrazole-5-carboxamide] | 10 to 200 |
| O=C(O)c1cccc(C(=O)Nc2cnc3[nH]c(-c4ccccc4)cc3c2)c1 [P-2291, 3-[(2-phenyl-1H-pyrrolo[2,3-b]pyridin-5-yl)carbamoyl]benzoic acid] | 10 to 200 |
| Cc1[nH]nc(C(=O)Nc2cnc3[nH]c(C4=CCN(C(=O)C5CC5)CC4)cc3c2)c1Cl [P-2039, 4-chloro-N-[2-[1-(cyclopropanecarbonyl)-3,6-dihydro-2H-pyridin-4-yl]-1H-pyrrolo[2,3-b]pyridin-5-yl]-5-methyl-1H-pyrazole-3-carboxamide] | 0.0001 to 1 |
| Cc1nn(C)cc1-c1cc2cc(NC(=O)c3[nH]nc(C)c3C)cnc2[nH]1 [P-2038, N-[2-(1,3-dimethylpyrazol-4-yl)-1H-pyrrolo[2,3-b]pyridin-5-yl]-4,5-dimethyl-1H-pyrazole-3-carboxamide] | 0.0001 to 1 |
| O=C(Nc1cnc2[nH]c(-c3ccc(F)cc3)cc2c1)c1n[nH]c2ccccc12 [P-2046, N-[2-(4-fluorophenyl)-1H-pyrrolo[2,3-b]pyridin-5-yl]-1H-indazole-3-carboxamide] | 10 to 200 |
| [2H]c1c([2H])c([2H])c(-c2cc3cc(NC(=O)c4[nH]nc(C)c4C)cnc3[nH]2)c([2H])c1[2H] [P-2164, 3,4-dimethyl-N-[2-(2,3,4,5,6-pentadeuteriophenyl)-1H-pyrrolo[2,3-b]pyridin-5-yl]-1H-pyrazole-5-carboxamide] | 1 to 10 |
| Cc1n[nH]c(C(=O)Nc2cnc3[nH]c(C4=CCN(S(C)(=O)=O)CC4)cc3c2)c1Cl [P-2057, 4-chloro-3-methyl-N-[2-(1-methylsulfonyl-3,6-dihydro-2H-pyridin-4-yl)-1H-pyrrolo[2,3-b]pyridin-5-yl]-1H-pyrazole-5-carboxamide] | 0.0001 to 1 |
| Cc1n[nH]c(C(=O)Nc2cnc3[nH]c(Cl)cc3c2)c1C [P-2049, N-(2-chloro-1H-pyrrolo[2,3-b]pyridin-5-yl)-3,4-dimethyl-1H-pyrazole-5-carboxamide] | 10 to 200 |
